In PubChem BioAssay AID179 (DTP/NCI, 2004):
Values joined by “and” are separate entries in the source; they are usually repeats but may differ in a detail not shown here. Identical values can stand only once. Active and inactive are the calls of the source.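 How the source made its calls: active means compounds giving half or more protection of infected cells from virus-caused growth loss, again on retest; inactive means the rest.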 Where a SMILES comes first, the peptide text is derived from it. The star is where a group is joined. ONb = O=[N+]([O-])c1ccc(CO*)cc1; Boc = CC(C)(C)OC(=O)*

Test system: CEM cells HIV-1 protection, formazan growth assay
Assay: NCI AIDS Antiviral Assay
Details: for IC50: measured here: growth of uninfected CEM cells
Summary of the method: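 Protection of CEM cells against HIV-1 was scored from cell growth (soluble formazan) across five concentrations, with parallel uninfected cells. Lack of protection may reflect toxicity.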

| Compound | outcome | EC50 [µM] | IC50 |
| --- | --- | --- | --- |
| CCC(C)N(CCN)C(=O)c1cc2ccccc2c(-c2ccccc2Cl)n1 (centres undefined) | inactive |  |  |
| O=[N+]([O-])c1ccc(CSC2=C(c3ccc(Cl)cc3)S/C(=C3\SC(SCc4ccc([N+](=O)[O-])cc4)=C(c4ccc(Cl)cc4)S3)S2)cc1 |  | > 200 | > 200 µM |
| CC1(Br)C(=O)NC(=O)N(C2C=CC(CO)O2)C1O (centres undefined) |  | > 200 | > 200 µM |
| Cc1cc2c(c(C(=O)O)c1C)-c1cccc(Cl)c1C2=O | inactive |  |  |
| O=C(O)c1cscc1Cc1cccs1 |  | > 200 | > 200 µM |
| COC(=O)[C@H](NC(=O)OC(C)(C)C)[C@H]1COC(C)(C)O1 |  | > 200 | > 200 µM |
| CC1=NOC/C1=N\Nc1ccc(C(C)=NC2C3CC4CC(C3)CC2C4)cc1 (centres undefined) |  | > 27.5 | > 27.5 µM |
| CCOC(=O)C1SCCC1(C)O (centres undefined) | inactive |  |  |
| NC1CNC(=O)c2c(Cl)sc(Cl)c21 (centres undefined) |  | > 200 | > 200 µM |
| NS(=O)(=O)c1ccc(Nc2c3ccc(Cl)cc3nc3ncccc23)cc1 | inactive |  |  |
| O=c1cc[nH]c2c1ccc1[nH]ccc(=O)c12 |  | > 200 | > 200 µM |
| O=[N+]([O-])/C=C(\CS(=O)(=O)c1ccccc1)c1ccc2c(c1)OCO2 |  | > 81.3 | 31.6 µM |
| c1ccc2c(c1)nc1n2CSC1 | inactive |  |  |
| COc1ccc(OC)c2c(OC)cc(C)cc12 |  | > 200 | 89.1 µM |
| CCOC(=O)Cn1c(=O)n(C)c(=O)c2c1ncn2Cc1ccccc1 |  | > 724 | 427 µM |
| O=[N+]([O-])c1cc([N+](=O)[O-])c(C(Cl)C(Cl)c2ccccc2)cc1C(Cl)C(Cl)c1ccccc1 (centres undefined) |  | > 5.25 | > 5.25 µM |
| Cc1nc2nnc(CCCCCCCCc3nnc4nc(C)[nH]n34)n2[nH]1 |  | 135 | 174 µM |
| Nc1nc(=Nc2ccccc2)ss1 | inactive |  |  |
| CCCC1OC[C@H]2OC(n3cc(C)c(=O)[nH]c3=O)C[C@H]2N1O (some centres undefined) |  | 52.5 | > 200 µM |
| COc1ccc(-c2oc3ccccc3c(=O)c2O)cc1OC |  | > 200 | 138 µM |
| Cc1cc(C)n(-c2nc(-c3ccccc3)cs2)n1 |  | > 200 | 72.4 µM |
| CCC12C=CCN3CCC4(C(=C(C(=O)OC)[C@@H]1O)Nc1ccccc14)C32 (some centres undefined) |  | > 141 | 2.34 µM |

| Compound | outcome | EC50 [µM] | IC50 |
| --- | --- | --- | --- |
| c1ccc2[nH]c(CNc3ccc(C4C[Se]N=N4)cc3)nc2c1 (centres undefined) |  | > 20.4 | > 20.4 µM |
| O=C1c2cccc(NCCNCCO)c2C(=O)c2cccc(NCCNCCO)c21 | inactive |  |  |
| CCN1CCCn2c(=S)[nH]c3cc(Br)cc1c32 |  | 57.5 | 97.7 µM |
| N#CC1(C#N)C2C=CC(C3CCC=C32)C1(C#N)C#N (centres undefined) |  | > 200 | 7.76 µM |
| Cc1nc(C(N)=S)sc1C(=O)CC(=O)C(=O)Nc1ccccc1[N+](=O)[O-] | inactive |  |  |
| CCc1cc[c]([Sb](=[O])([OH])[OH])cc1 | inactive |  |  |
| COc1cc(C(c2c(O)c3ccccc3oc2=O)c2c(O)c3ccccc3oc2=O)cc(OC)c1OC |  | > 200 | 93.3 µM |
| N#C/C(C(=S)Nc1ccccc1)=C(/N)N1CCCC1 |  | > 200 | 105 µM |
| CN(C)c1ccc2nc(CC(O)(C(F)(F)F)C(F)(F)F)ccc2c1 |  | > 200 | > 200 µM |
| Cc1cc(Cl)cc2c1NC(=O)C2(O)C(C(=O)c1ccccc1)c1ccccc1 (centres undefined) |  | > 91.2 | > 91.2 µM |
| OC1CN2CCS[C@H]2C(O)C1O (some centres undefined) |  | > 200 | > 200 µM |
| COc1ccc2c(c1)c(=O)c(C(=O)O)cn2CCCOc1ccc([N+](=O)[O-])cc1 | inactive |  |  |
| Cn1c(=N)n[n+]([O-])c2ccccc21 |  | > 200 | 3.47 µM and 4.07 µM |
| C[N+](C)(CCCn1ccnc1[N+](=O)[O-])CCCn1ccnc1[N+](=O)[O-] |  | > 200 | > 200 µM |
| CC1(C)[C@H]2Cc3cc4nc5ccccn5c4cc3[C@@H]1C2 |  | > 200 | 24 µM |
| NC(=O)c1ccc(N=Nc2c(O)c3ccccc3[nH]c2=O)cc1 |  | > 200 | > 200 µM |
| O=c1cc(-c2ccccc2)nc(/C=C(\O)c2ccncc2)n1-c1ccccc1 |  | > 3.98 | > 3.98 µM |
| COc1ccc(/C=C(/C(C)=O)c2ccccc2)cc1 |  | > 74.1 | > 74.1 µM |
| CC(=O)N1c2ccccc2N(C(C)=O)C1c1ccc(C2N(C(C)=O)c3ccccc3N2C(C)=O)[nH]1 | inactive |  |  |
| CSc1cc(SC)ncn1 |  | > 1450 | 1020 µM |
| CCCCCC(=O)c1c(O)cc2c(c1O)C(=O)c1c(O)cc(O)cc1C2=O |  | > 200 | 56.2 µM |
| O=C(c1ccccc1)C1C(C(=O)c2ccccc2)N1Cc1ccccc1 (centres undefined) |  | > 200 | 60.3 µM and > 55 µM |

| Compound | outcome | EC50 [µM] | IC50 |
| --- | --- | --- | --- |
| CSc1c(C#N)c(=C(C#N)C#N)nc(C)/c1=C(\C)O |  | > 100 | > 100 µM |
| Cc1cc(S(=O)(=O)NC2=NCc3c(F)cccc3N2)c(S)cc1Cl |  | > 97.7 | 72.4 µM |
| CC(C)c1ccc(/C=C2\CSCC3=C2NC(=S)NC3c2ccc(C(C)C)cc2)cc1 (centres undefined) |  | > 200 | 42.7 µM |
| Cc1cc(C)c(C(=O)OC(c2ccccc2)C(c2ccccc2)N2CCOCC2)c(C)c1 (centres undefined) | inactive |  |  |
| CCOC(=O)c1sc2nc(SC)nc3c2c1NCN3C1CC1 |  | > 100 | > 100 µM |
| O=C1CCCC(=O)N1n1c(Cc2ccccc2)n[nH]c1=O |  | > 200 | > 200 µM |
| O=c1[nH]c(=O)n(Cc2ccccc2)cc1B(O)O |  | > 200 | > 200 µM |
| Cc1cc(NS(=O)(=O)c2ccc(NC(=O)c3ccc4[nH]c5ccccc5c(=O)c4c3)cc2)no1 |  | > 200 | 93.3 µM |
| CC(C)CC(NC(=O)OC(C)(C)C)C(=O)NC(CCC(=O)OCc1ccc([N+](=O)[O-])cc1)C(=O)OCc1ccc([N+](=O)[O-])cc1 (stereo not drawn) (Boc-Leu-Glu(ONb)-ONb; configuration not given here) |  | > 200 | 10.7 µM |
| CC(=O)N(CCCCNC(=O)C(F)(F)F)CCCNC(=O)C(F)(F)F |  | > 200 | > 200 µM |
| C/C(=N\NC(N)=S)C(CN1CCCCC1)C(C1=C(O)c2ccccc2OC1)c1ccccc1 (centres undefined) |  | > 224 | 123 µM |
| O=C(O)c1ccccc1/C=C1\Cc2ccc3c(c2C1=O)CCCC3 |  | > 200 | 41.7 µM |
| c1cc(-c2cn3ccsc3n2)ccn1 |  | > 447 | 186 µM |
| CCCCCCCCCCCCCCCCCCC(C(=O)O)C(=O)O |  | > 708 | 347 µM |
| CC1C2CCC3(CCC4C5(C)CCCC4(CN(CCO)C5)C3C2)C1O (centres undefined) | inactive |  |  |
| O=C(Nc1ccc(Cl)cc1)C1C(=O)C(=O)N(c2ccc(Cl)cc2)C1=O (centres undefined) | inactive |  |  |
| COc1cccc(NC(=O)/C(CC(=O)CC(c2ccccc2)c2c(O)c3ccccc3oc2=O)=N\NC(C)(C)C)c1OC (centres undefined) |  | > 85.1 | 70.8 µM |
| CSc1nc(C)c(CCOC(C)=O)c(N=P(c2ccccc2)(c2ccccc2)c2ccccc2)n1 |  | > 200 | 28.8 µM |
| CN(C)C1COC2Cc3ccccc3C1O2 (centres undefined) |  | > 200 | > 200 µM |
| CCc1cccc(C)c1NC(=O)C1=C(C)NC(C)=C(C(=O)Nc2c(C)cccc2CC)C1c1ccc2c(c1)OCO2 |  | > 24.5 | > 24.5 µM |
| O=c1[nH]nc(-c2ccccc2)n1/N=C/c1cccc([N+](=O)[O-])c1 |  | > 200 | 24.5 µM |
| CC(=O)OC1C=CN(C(C)=O)C(SC(C)(C)C)C1(C)O (centres undefined) |  | > 200 | > 200 µM |

| Compound | outcome | EC50 [µM] | IC50 |
| --- | --- | --- | --- |
| CCC(/C(=N/NC(=O)C[N+](C)(C)C)c1ccccc1)C1OC(=O)c2ccccc21 (centres undefined) |  | > 575 | > 575 µM |
| CC(C)=CC(=O)OC1C2C(C)=CC(=O)C(O)C2(C)C2C3(O)OCC24C(CC(=O)OC14)C(C)C3O (centres undefined) |  | > 0.2 | 0.0112 µM |
| NC(=O)NC12CC3CC(CC(F)(C3)C1)C2 |  | > 1170 | > 1170 µM |
| O[C@H]1[C@@H](O)C2(C[C@@H]1Br)OC(COCc1ccccc1)[C@@H](COCc1ccccc1)O2 (some centres undefined) | inactive |  |  |
| CCOC(=O)c1cn(-c2ccc([N+](=O)[O-])cc2)c(=S)n2c1nc1ccccc12 |  | > 200 | 9.33 µM |
| Cc1cc(C)c(C2=NO[C@H]3c4ccccc4OC[C@@H]23)c(C)c1 |  | > 24.5 | > 24.5 µM |
| COC(=O)[C@]1(C)CCC[C@]2(C)C3=CC(=O)[C@@]4(C(C)C)O[C@H]4[C@]3(O)CC[C@@H]12 |  | > 72.4 | > 72.4 µM |
| Cc1cccc2c1CC1(C2)Cc2c(C)cccc2C1=O (centres undefined) |  | > 200 | 37.2 µM |
| CC1(C)CNC(=O)C2(CCCO2)CNC(C)(C)CNC(=O)C2(CCCO2)CN1 (centres undefined) |  | > 126 | > 126 µM |
| O=C1C2C3SC(c4cc5ccccc5cc43)C2C(=O)N1c1ccccc1 (centres undefined) | inactive |  |  |
| N#CC1(C#N)C(c2ccccc2)C=CC(c2ccc([N+](=O)[O-])cc2)C1(C#N)C#N (centres undefined) |  | > 200 | 3.55 µM |
| CCCCCCC(O)CCCCCCCCCCC(=O)OCC(COC(=O)CCCCCCCCCCC(O)CCCCCC)OC(=O)CCCCCCCCCCC(O)CCCCCC (centres undefined) |  | > 100 | > 100 µM |
| Cn1c(O)c(N=O)c(=O)[nH]c1=O |  | > 200 | > 200 µM |
| CCOc1ccc(NC(=O)/C(CC(=O)c2c[n+](=O)c3ccccc3n2[O-])=N\OCCCc2ccccc2)cc1 |  | > 123 | > 123 µM |
| CCOP(=O)(OCC)/C(C#N)=C/c1cnc[nH]1 |  | > 200 | > 200 µM |
| CC(C)(C)C(=O)OC12/C(=N/O)CCCCCC1c1ccccc12 (centres undefined) |  | > 200 | 37.2 µM |
| CN(C)/C(N)=N/C(N)=S | inactive |  |  |
| Cc1cc(OC(=O)c2c(C)cc(OC(=O)c3c(C)cc(O)cc3O)cc2O)cc(O)c1C(=O)O |  | > 77.6 | > 77.6 µM |
| COC(=O)[C@H](C)NC(=O)[C@H](CSC)N1C(=O)N[C@@H](C(C)C)C1=O |  | > 200 | 24.5 µM |
| CCOC(=O)/C(F)=C/c1ccc(OC)cc1 |  | > 115 | > 115 µM |
| COc1ccc(C(=O)/C=C/c2cc(C(C)(C)C)c(O)c(C(C)(C)C)c2)cc1 |  | > 7.41 | > 7.41 µM |
| O=c1c2nc(-c3ccccc3)oc2n(-c2ccccc2)c(=O)n1-c1ccccc1 |  | > 200 | 117 µM |
